Where a name gives a salt, the structure may show the parent alone. A value given as a limit tells only on which side of the number the result lay.

The text below walks through data of patent US20240409536A1, “COMPOUNDS AND METHODS FOR MODULATING SPLICING” (REMIX THERAPEUTICS INC., priority 2021, published 2024).

The subject of data set [1] is MYB mRNA. Kind of data set: Splicing RT-qPCR assay, MYB canonical (CJ) and alternative (AJ) junction mRNA. The format is cell-based. Particulars: Homo sapiens, A673 or K562 cells, 24 hours; for IC50: decrease in canonical junction mRNA; for AC50: increase in alternative junction mRNA. The method in brief: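 A673 or K562 cells were treated 24 h at 37 °C with compounds in an 11-point 3-fold dilution series (top final 10 uM, DMSO ≤0.25%). Lysates were analysed by one-step RT-qPCR for canonical (CJ) and alternative-exon (AJ) junction isoforms, normalized to GAPDH, GUSB or PPIA.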

Data set [2] concerns HTT mRNA. Kind of data set: Gene panel canonical junction qPCR assay, HTT CJ mRNA decrease. To be noted: Homo sapiens, canonical junction qPCR, read-out: HTT IC50 (decrease in CJ mRNA levels). The format is cell-based, human. The method in brief: (§1)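 A673 or K562 cells were treated with compound, and lysates underwent cDNA synthesis and qPCR with a CY5 5′-nuclease probe or primer spanning the canonical exon junction. ΔCt versus GAPDH, GUSB or PPIA was normalized to DMSO (2^(−ΔΔCt)), converted to percentage response and fitted four-parameter logistic for IC50.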
In general terms: Real-time PCR tracks product formation cycle by cycle.

In data set [3] the test system is MYB mRNA. Kind of data set: Gene panel canonical junction qPCR assay, MYB CJ mRNA decrease. The format is cell-based, human. Particulars: Homo sapiens, canonical junction qPCR, read-out: MYB IC50 (decrease in CJ mRNA levels). The method in brief:
as §1

The test system of data set [4] is K562 cells. Kind of data set: Cell Titer Glo 2.0 cell viability assay in K562 cells. To be noted: 72 hours.

One may read the IC50 as the concentration needed to halve the response being measured. The AC50 is the concentration at which the activity in the assay is half-maximal. Lower therefore signals greater potency. Take `Cc1nc(NC(=O)c2ccc(N3CCNCC3)c3ccnnc23)cc2cn(C)nc12` [Compound 178, N-{2,7-dimethylpyrazolo[3,4-c]pyridin-5-yl}-5-(piperazin-1-yl)cinnoline-8-carboxamide]: the IC50 in data set [1] is 100 to 1000 nM; in data set [2], more than 10000 nM; in data set [3], 100 to 1000 nM. In addition, in data set [1], the AC50 was in the range of 100 to 1000 nM. In data set [4], the Viability result is “C (C represents 1000-9999 nM)”.
With `COc1nc(NC(=O)c2ccc(N3CCNCC3)c3ccnnc23)cn2cc(C)nc12` [Compound 179, N-{8-methoxy-2-methylimidazo[1,2-a]pyrazin-6-yl}-5-(piperazin-1-yl)cinnoline-8-carboxamide], the IC50 was less than 100 nM in data set [1], 1000 to 10000 nM in data set [2] and less than 100 nM in data set [3]. The same molecule came in with an AC50 in data set [1] of less than 100 nM. Moreover, the Viability entry in data set [4] is reported as “B (B represents 100-1000 nM)”.
Regarding `Cc1c(O)c(NC(=O)c2ccc(N3CCNCC3)c3ccnnc23)cc2cn(C)nc12` [Compound 181, N-(6-hydroxy-2,7-dimethylindazol-5-yl)-5-(piperazin-1-yl)cinnoline-8-carboxamide], the figures for the IC50 in data set [1], in data set [2] and in data set [3] were 100 to 1000 nM, more than 10000 nM and 100 to 1000 nM, respectively. This molecule registered an AC50 in data set [1] of 1000 to 10000 nM. The Viability entry in data set [4] is “C (C represents 1000-9999 nM)”.
`Cc1cn2cc(NC(=O)c3ccc(N4CCNCC4)c4ccnnc34)cc(C(C)O)c2n1` (stereo not drawn) [Compound 182, N-[8-(1-hydroxyethyl)-2-methylimidazo[1,2-a]pyridin-6-yl]-5-(piperazin-1-yl)cinnoline-8-carboxamide trifluoroacetate]: the IC50 in data set [1], in data set [2] and in data set [3] was more than 10000 nM each time. Besides, in data set [1], the AC50 was more than 10000 nM. In data set [4], the Viability result is “D (D represents greater than 10 μM in K562 cells)”.
For `COc1cc2c(N3CCNCC3)ccc(C(=O)Nc3cc(F)c4nc(C)cn4c3)c2nn1` [Compound 183, N-{8-fluoro-2-methylimidazo[1,2-a]pyridin-6-yl}-3-methoxy-5-(piperazin-1-yl)cinnoline-8-carboxamide], the IC50 in data set [1] was less than 100 nM; in data set [2], 1000 to 10000 nM; in data set [3], less than 100 nM. For the same molecule, in data set [1], the AC50 is less than 100 nM. Besides, the Viability entry in data set [4] is given as “B (B represents 100-1000 nM)”.
With `Cc1cn2cc(NC(=O)c3ccc(N4CCN[C@@H](C)C4)c4nccnc34)cc(F)c2n1` [Compound 187, N-{8-fluoro-2-methylimidazo[1,2-a]pyridin-6-yl}-8-(3-methylpiperazin-1-yl) quinoxaline-5-carboxamide], the IC50 in data set [1] is less than 100 nM; in data set [2] it was 1000 to 10000 nM; in data set [3] it was less than 100 nM. This molecule showed an AC50 in data set [1] of less than 100 nM. In addition, the Viability result in data set [4] was “B (B represents 100-1000 nM)”.
Regarding `Cc1cn2cc(NC(=O)c3ccc(N4CCC5(CCN5)CC4)c4nccnc34)cc(F)c2n1` [Compound 189, 8-{1,7-diazaspiro[3.5]nonan-7-yl}-N-{8-fluoro-2-methylimidazo[1,2-a]pyridin-6-yl}quinoxaline-5-carboxamide], the IC50 in data set [1] is less than 100 nM; in data set [2] it was 100 to 1000 nM; in data set [3], less than 100 nM. This molecule registered an AC50 in data set [1] of 100 to 1000 nM. In addition, in data set [4], the Viability entry was “B (B represents 100-1000 nM)”.
`CNC1CCN(c2ccc(C(=O)Nc3cc(F)c4nc(C)cn4c3)c3nccnc23)C1` (stereo not drawn) [Compound 190, N-{8-fluoro-2-methylimidazo[1,2-a]pyridin-6-yl}-8-[3-(methylamino)pyrrolidin-1-yl]quinoxaline-5-carboxamide]: the IC50 in data set [1] lay in the range of 100 to 1000 nM; in data set [2], 1000 to 10000 nM; in data set [3], 100 to 1000 nM. Moreover, in data set [1], the AC50 is less than 100 nM. The Viability result in data set [4] was “A (A represents <100 nM)”.
As for `CCNC1CCN(c2ccc(C(=O)Nc3cc(F)c4nc(C)cn4c3)c3nccnc23)CC1` [Compound 191, 8-[4-(ethylamino)piperidin-1-yl]-N-{8-fluoro-2-methylimidazo[1,2-a]pyridin-6-yl}quinoxaline-5-carboxamide], the results for the concentration for half-maximal inhibition (IC50) in data set [1], in data set [2] and in data set [3] were less than 100 nM, 100 to 1000 nM and less than 100 nM, respectively. The AC50 in data set [1] was 100 to 1000 nM. Also, in data set [4], the Viability result is given as “B (B represents 100-1000 nM)”.
Take `CNCC1CCN(c2ccc(C(=O)Nc3cc(F)c4nc(C)cn4c3)c3nccnc23)CC1` [Compound 192, N-{8-fluoro-2-methylimidazo[1,2-a]pyridin-6-yl}-8-{4-[(methylamino)methyl]piperidin-1-yl}quinoxaline-5-carboxamide trifluoroacetate]: the IC50 in data set [1], in data set [2] and in data set [3] was 1000 to 10000 nM in each case. For the same molecule, the AC50 in data set [1] is 1000 to 10000 nM. Besides, the Viability result in data set [4] was “C (C represents 1000-9999 nM)”.
For the molecule `CNC1CCN(c2ccc(C(=O)Nc3cc(F)c4nc(C)cn4c3)c3nc(C)ccc23)C1` (stereo not drawn) [Compound 196, N-{8-fluoro-2-methylimidazo[1,2-a]pyridin-6-yl}-2-methyl-5-[3-(methylamino)pyrrolidin-1-yl]quinoline-8-carboxamide 2,2,2-trifluoroacetate], the results for the IC50 in data set [1], in data set [2] and in data set [3] were 100 to 1000 nM, 1000 to 10000 nM and 100 to 1000 nM, respectively. In data set [1], the AC50 lay within 100 to 1000 nM. The Viability result in data set [4] was “A (A represents <100 nM)”.
In the case of `Cc1cnc2c(N3CCNCC3)ccc(C(=O)Nc3cc(F)c4nc(C)cn4c3)c2n1` [Compound 197, N-{8-fluoro-2-methylimidazo[1,2-a]pyridin-6-yl}-3-methyl-8-(piperazin-1-yl)quinoxaline-5-carboxamide; trifluoroacetic acid], the IC50 lay within 100 to 1000 nM in data set [1], 1000 to 10000 nM in data set [2] and 100 to 1000 nM in data set [3]. The molecule also displayed an AC50 in data set [1] of 100 to 1000 nM. The Viability result in data set [4] is “C (C represents 1000-9999 nM)”.
For the molecule `COCCOc1cc2c(N3CCNCC3)ccc(C(=O)Nc3cc(F)c4nc(C)cn4c3)c2nn1` [Compound 199, N-{8-fluoro-2-methylimidazo[1,2-a]pyridin-6-yl}-3-(2-methoxyethoxy)-5-(piperazin-1-yl)cinnoline-8-carboxamide], the IC50 in data set [1] is 100 to 1000 nM; in data set [2] it was more than 10000 nM; in data set [3], 100 to 1000 nM. The same molecule gave an AC50 in data set [1] of less than 100 nM. In data set [4], the Viability result is recorded as “B (B represents 100-1000 nM)”.
For the molecule `Cc1cnc2c(N3CCC(N(C)C)CC3)ccc(C(=O)Nc3cc(F)c4nc(C)cn4c3)c2n1` [Compound 200, 8-[4-(dimethylamino)piperidin-1-yl]-N-{8-fluoro-2-methylimidazo[1,2-a]pyridin-6-yl}-3-methylquinoxaline-5-carboxamide], the IC50 in data set [1] was less than 100 nM; in data set [2], 100 to 1000 nM; in data set [3] it was less than 100 nM. This molecule showed an AC50 in data set [1] of less than 100 nM. In addition, the Viability result in data set [4] is listed as “B (B represents 100-1000 nM)”.
In the case of `CN[C@@H]1CCN(c2ccc(C(=O)Nc3cc(F)c4nc(C)cn4c3)c3nc(OC)cnc23)C1` [Compound 204, (R)—N-{8-fluoro-2-methylimidazo[1,2-a]pyridin-6-yl}-3-methoxy-8-[3-(methylamino)pyrrolidin-1-yl]quinoxaline-5-carboxamide; trifluoroacetic acid], the figures for the IC50 in data set [1], in data set [2] and in data set [3] were 1000 to 10000 nM, more than 10000 nM and 1000 to 10000 nM, respectively. This molecule also came in with an AC50 in data set [1] of more than 10000 nM. Besides, the Viability result in data set [4] was “A (A represents <100 nM)”.
As to `COc1cnc2c(N3C[C@@H](C)N[C@@H](C)C3)ccc(C(=O)Nc3cc(F)c4nc(C)cn4c3)c2n1` [Compound 205, 8-[(3R,5S)-3,5-dimethylpiperazin-1-yl]-N-{8-fluoro-2-methylimidazo[1,2-a]pyridin-6-yl}-3-methoxyquinoxaline-5-carboxamide; trifluoroacetic acid], the results for the IC50 in data set [1], in data set [2] and in data set [3] were less than 100 nM, 100 to 1000 nM and less than 100 nM, respectively. Besides, the AC50 in data set [1] was less than 100 nM. For the same molecule, the Viability entry in data set [4] was “B (B represents 100-1000 nM)”.
For `COc1cnc2c(N3CCC(N(C)C)CC3)ccc(C(=O)Nc3cc(F)c4nc(C)cn4c3)c2n1` [Compound 206, 8-[4-(dimethylamino)piperidin-1-yl]-N-{8-fluoro-2-methylimidazo[1,2-a]pyridin-6-yl}-3-methoxyquinoxaline-5-carboxamide; trifluoroacetic acid], the IC50 in data set [1], in data set [2] and in data set [3] was 100 to 1000 nM each time. The same molecule had an AC50 in data set [1] of 100 to 1000 nM. The Viability entry in data set [4] is listed as “B (B represents 100-1000 nM)”.
As for `COc1cnc2c(N3CCNCC3)ccc(C(=O)Nc3cc(F)c4nc(C)cn4c3)c2n1` [Compound 207, N-{8-fluoro-2-methylimidazo[1,2-a]pyridin-6-yl}-3-methoxy-8-(piperazin-1-yl)quinoxaline-5-carboxamide; bis(trifluoroacetic acid)], the figures for the IC50 in data set [1], in data set [2] and in data set [3] were less than 100 nM, 100 to 1000 nM and less than 100 nM, respectively. This molecule also showed an AC50 in data set [1] of less than 100 nM. The Viability result in data set [4] is “B (B represents 100-1000 nM)”.
